Measurements taken from the NIST ThermoML archive (doi:10.1021/je5010214).

Conditions: Liquid, Vibrating tube method

CC(C)CO [2-methyl-1-propanol]
Conditions | mass density [kg/m3]
293.15 K, 5367.8 kPa | 806.019
293.15 K, 5979.3 kPa | 806.327
293.15 K, 8031.4 kPa | 807.842
293.15 K, 12279 kPa | 811.587
293.15 K, 16110 kPa | 814.191
293.15 K, 18001 kPa | 815.385
293.15 K, 30253 kPa | 822.999
293.15 K, 32967 kPa | 824.811
293.15 K, 42984 kPa | 830.218
293.15 K, 44913 kPa | 831.278
293.15 K, 47933 kPa | 833.008
293.15 K, 50078 kPa | 834.047
293.16 K, 310.4 kPa | 802.406
293.16 K, 463.5 kPa | 802.612
293.16 K, 1059.7 kPa | 802.921
293.16 K, 2037.1 kPa | 803.747
293.16 K, 2922 kPa | 804.089
293.16 K, 3431.5 kPa | 804.593
293.16 K, 5298.8 kPa | 805.894
293.16 K, 7111.4 kPa | 807.238
293.16 K, 9968.5 kPa | 809.474
293.16 K, 14057 kPa | 812.743
293.16 K, 20853 kPa | 817.066
293.16 K, 22118 kPa | 818.157
293.16 K, 24057 kPa | 819.188
293.16 K, 25922 kPa | 820.412
293.16 K, 27187 kPa | 821.228
293.16 K, 34602 kPa | 825.683
293.16 K, 38051 kPa | 827.567
293.16 K, 40103 kPa | 828.763
293.16 K, 52135 kPa | 835.387
293.16 K, 55036 kPa | 836.79
293.16 K, 58004 kPa | 838.271
293.16 K, 60107 kPa | 839.502
293.16 K, 62061 kPa | 840.325
293.16 K, 66037 kPa | 842.335
298.15 K, 122.4 kPa | 798.281
298.15 K, 162.6 kPa | 798.371
298.15 K, 405.5 kPa | 798.562
298.15 K, 632.8 kPa | 798.678
298.15 K, 956.4 kPa | 798.832
298.15 K, 6988.8 kPa | 803.491
298.15 K, 14555 kPa | 809.311
298.15 K, 18284 kPa | 812.068
298.15 K, 20164 kPa | 813.104
298.15 K, 22781 kPa | 814.894
298.15 K, 25076 kPa | 816.275
298.15 K, 27604 kPa | 817.904
298.15 K, 30046 kPa | 819.519
298.15 K, 32326 kPa | 821.055
298.15 K, 33317 kPa | 821.248
298.15 K, 44911 kPa | 827.946
298.15 K, 60006 kPa | 836.063
298.15 K, 62079 kPa | 837.121
298.15 K, 65330 kPa | 838.566
298.15 K, 66093 kPa | 839.052
298.16 K, 1152.2 kPa | 799.011
298.16 K, 2046.3 kPa | 799.798
298.16 K, 3021.1 kPa | 800.42
298.16 K, 5107.4 kPa | 801.927
298.16 K, 9044.3 kPa | 804.777
298.16 K, 9996.8 kPa | 805.681
298.16 K, 11947 kPa | 807.14
298.16 K, 33072 kPa | 821.357
298.16 K, 34997 kPa | 822.338
298.16 K, 37948 kPa | 823.936
298.16 K, 39972 kPa | 825.207
298.16 K, 41983 kPa | 826.345
298.16 K, 48045 kPa | 829.528
298.16 K, 49997 kPa | 830.783
298.16 K, 52020 kPa | 832.399
298.16 K, 54851 kPa | 833.381
298.16 K, 57898 kPa | 835.245
303.15 K, 50.6 kPa | 793.736
303.15 K, 974.4 kPa | 794.496
303.15 K, 1922.5 kPa | 795.367
303.15 K, 9012.3 kPa | 801.25
303.15 K, 10062 kPa | 802.346
303.15 K, 14908 kPa | 805.823
303.15 K, 18109 kPa | 808.133
